Among the test systems are MDA-MB-435; RPMI-8226 leukemia; SNB-19 CNS; RXF 393 renal; KM12 colon; OVCAR-4 ovarian; U251 CNS; MCF7 breast; HOP-62 NSCLC; HL-60(TB) leukemia; SK-MEL-5 melanoma; TK-10 renal; ACHN renal; K-562 leukemia; MALME-3M melanoma; HT29 colon; SK-OV-3 ovarian.
What all share (experiment): DTP human tumour cell line panel, 48 h

The values below come from PubChem BioAssay (NCI).

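All cell lines were grown in 96-well plates and treated with compound for 48 hours. TGI: concentration producing complete growth inhibition.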

What is called TGI is the concentration giving total growth inhibition. Take `O=C(/C=C/c1cc(F)ccc1F)OCCc1ccccc1`: the TGI is > 100 µM with MDA-MB-435; > 100 µM in the experiment on RPMI-8226 leukemia; > 100 µM in the experiment with SNB-19 CNS; > 100 µM in the experiment with RXF 393 renal; > 100 µM in the experiment with KM12 colon; 47.4 µM in the experiment with OVCAR-4 ovarian. Moreover, the TGI in the experiment with U251 CNS is > 100 µM; in the experiment with MCF7 breast it was > 100 µM; with HOP-62 NSCLC it was > 100 µM; with HL-60(TB) leukemia, 79.9 µM; with SK-MEL-5 melanoma, > 100 µM; with TK-10 renal, > 100 µM. Also, the TGI with ACHN renal, in the experiment on K-562 leukemia, in the experiment with MALME-3M melanoma and with HT29 colon was > 100 µM in each case.
Regarding `O=CN(O)CC(=O)O.[Ni]`, the TGI in the experiment with MDA-MB-435, in the experiment with RPMI-8226 leukemia, with SNB-19 CNS, in the experiment with RXF 393 renal, with KM12 colon and with OVCAR-4 ovarian was > 100 µM each time. In addition, the TGI with U251 CNS, with SK-OV-3 ovarian, in the experiment with MCF7 breast, in the experiment on HOP-62 NSCLC, in the experiment with HL-60(TB) leukemia and in the experiment on SK-MEL-5 melanoma was > 100 µM in each case. The TGI in the experiment with ACHN renal, in the experiment with K-562 leukemia, in the experiment with MALME-3M melanoma and in the experiment on HT29 colon was > 100 µM throughout.
Turning to `c1csc(-c2sc(-c3ccsc3)cc2Cc2ccsc2)c1`, the TGI in the experiment with MDA-MB-435, in the experiment on RPMI-8226 leukemia, with RXF 393 renal, in the experiment on KM12 colon, in the experiment with OVCAR-4 ovarian and with SK-OV-3 ovarian was > 10 µM throughout. The TGI in the experiment with MCF7 breast, with HOP-62 NSCLC, in the experiment with HL-60(TB) leukemia, with SK-MEL-5 melanoma, with TK-10 renal and in the experiment with K-562 leukemia was > 10 µM each time. For the same compound, the TGI with MALME-3M melanoma and in the experiment with HT29 colon was > 10 µM each time.
Consider `COc1cc(CCC(=O)O)c2cc3ccccc3cc2c1O`, for which the TGI was found to be 34.4 µM in the experiment on MDA-MB-435; 26.4 µM in the experiment with RPMI-8226 leukemia; 60.5 µM with SNB-19 CNS; 44.1 µM in the experiment with KM12 colon; 29.7 µM in the experiment with OVCAR-4 ovarian; 29.9 µM with U251 CNS. Moreover, the TGI was > 100 µM in the experiment on SK-OV-3 ovarian; 34.4 µM in the experiment on MCF7 breast; 32.7 µM in the experiment with HOP-62 NSCLC; 39.1 µM in the experiment with HL-60(TB) leukemia; 28.4 µM in the experiment on SK-MEL-5 melanoma; 75.1 µM with TK-10 renal. The TGI with ACHN renal stood at 32.2 µM; with K-562 leukemia it was 42.4 µM; in the experiment with MALME-3M melanoma, 32.3 µM; with HT29 colon, 43.8 µM.
As for `O=C1CC(NC2CC(=O)c3c(Br)sc(Br)c32)c2c(Br)sc(Br)c21` (stereo unspecified), the TGI is 11.2 µM with MDA-MB-435; 28.4 µM in the experiment with SNB-19 CNS; 8.86 µM in the experiment on RXF 393 renal; 6.03 µM in the experiment with KM12 colon; > 78.1 µM with OVCAR-4 ovarian; 3.36 µM with U251 CNS. Besides, the TGI in the experiment with SK-OV-3 ovarian was found to be 32.6 µM; in the experiment on MCF7 breast, 8.44 µM; in the experiment with HOP-62 NSCLC, 12.2 µM; in the experiment on HL-60(TB) leukemia it was 7.65 µM; in the experiment on SK-MEL-5 melanoma it was 18.2 µM; in the experiment with TK-10 renal, 6.47 µM. In addition, the TGI in the experiment with ACHN renal was 5.22 µM; in the experiment on K-562 leukemia, > 21.5 µM; in the experiment with MALME-3M melanoma, 5.62 µM; in the experiment on HT29 colon, 8.91 µM.
Take `O=S(=O)(c1ccccc1)[C@@H]1[C@H]2C=C[C@](CS)(O2)[C@H]1S(=O)(=O)c1ccccc1`: the total growth inhibition concentration (TGI) in the experiment on MDA-MB-435, in the experiment with SNB-19 CNS, in the experiment on RXF 393 renal, in the experiment on KM12 colon, in the experiment on OVCAR-4 ovarian and in the experiment with U251 CNS was > 100 µM each time. The TGI with SK-OV-3 ovarian, in the experiment on MCF7 breast, with HOP-62 NSCLC, with HL-60(TB) leukemia, in the experiment with SK-MEL-5 melanoma and with TK-10 renal was > 100 µM throughout. The concentration for total growth inhibition (TGI) with ACHN renal is > 100 µM; in the experiment on K-562 leukemia, 36.9 µM; in the experiment with MALME-3M melanoma, > 100 µM; in the experiment with HT29 colon, > 100 µM.
Take `CCSC1=C(C#N)C2(CCCCC2)C2=C(CC(C)(C)CC2=O)N1`: the TGI in the experiment on MDA-MB-435 is > 100 µM; in the experiment with RPMI-8226 leukemia, > 100 µM; in the experiment on SNB-19 CNS, 76.2 µM; in the experiment on RXF 393 renal, > 100 µM; in the experiment with KM12 colon, > 100 µM; with OVCAR-4 ovarian, 73.2 µM. The TGI was > 100 µM with U251 CNS; > 100 µM in the experiment with MCF7 breast; > 100 µM with HL-60(TB) leukemia; > 100 µM with SK-MEL-5 melanoma; > 100 µM in the experiment with TK-10 renal; 74.2 µM with ACHN renal. In addition, the figures for the TGI in the experiment with K-562 leukemia, in the experiment with MALME-3M melanoma and in the experiment on HT29 colon were > 100 µM, 78.2 µM and > 100 µM, respectively.
Turning to `c1ccc2c(c1)ccc1nc3ccccn3c12`, the TGI in the experiment on MDA-MB-435, in the experiment with RPMI-8226 leukemia, with SNB-19 CNS, in the experiment with RXF 393 renal, in the experiment on KM12 colon and in the experiment on U251 CNS was > 100 µM throughout. The TGI in the experiment with SK-OV-3 ovarian, with MCF7 breast, in the experiment on HOP-62 NSCLC, with HL-60(TB) leukemia, with SK-MEL-5 melanoma and in the experiment with TK-10 renal was > 100 µM throughout. The TGI with ACHN renal, in the experiment with K-562 leukemia, in the experiment with MALME-3M melanoma and with HT29 colon was > 100 µM each time.
In the case of `O=C(O)c1cccc(S(=O)(=O)NN2C(=O)CSC2c2ccccc2Cl)c1` (stereo unspecified), the TGI in the experiment on MDA-MB-435, in the experiment with RPMI-8226 leukemia, in the experiment on SNB-19 CNS, with RXF 393 renal, with KM12 colon and in the experiment with U251 CNS was > 100 µM each time. In addition, the TGI with SK-OV-3 ovarian, in the experiment with MCF7 breast, with HOP-62 NSCLC, with HL-60(TB) leukemia, in the experiment on SK-MEL-5 melanoma and with TK-10 renal was > 100 µM throughout. Further, the TGI in the experiment with ACHN renal, in the experiment on K-562 leukemia, in the experiment on MALME-3M melanoma and in the experiment with HT29 colon was > 100 µM each time.
